For orientation: IC50 means the concentration that gives 50% inhibition.

What all share (assay): JAK Caliper Enzyme Assay at 1 mM ATP
Holding throughout (conditions): pH 7.4; 25 °C

In experiment [1] the target is Tyrosine-protein kinase JAK2 (Homo sapiens, UniProt O60674). How it is done: (§1) Test article was solubilized in dimethyl sulfoxide (DMSO) to a stock concentration of 30 mM. An 11-point half log dilution series was created in DMSO with a top concentration of 600 μM. […] The compound plates were diluted 1 to 60 resulting in a top final assay compound concentration of 10 μM and a 2% DMSO concentration.Test article and assay controls were added to a 384-well plate. Reaction mixtures contained 20 mM HEPES, pH 7.4, 10 mM magnesium chloride, 0.01% bovine serum albumin (BSA), 0.0005% Tween 20, 1 mM ATP and 1 μM peptide substrate. […] Enzyme concentrations and incubation times were optimized for each new enzyme preps and were modified slightly over time to ensure 20%-30% phosphorylation. The assays were stopped with a final concentration of 10 mM EDTA, 0.1% Coating Reagent and 100 mM HEPES, pH=7.4. The assay plates were placed on a Caliper Life Science Lab Chip 3000 (LC3000) instrument, and each well was sampled using appropriate separation conditions to measure the unphosphorylated and phosphorylated peptide.
Chain of Tyrosine-protein kinase JAK2 (O60674 whole entry): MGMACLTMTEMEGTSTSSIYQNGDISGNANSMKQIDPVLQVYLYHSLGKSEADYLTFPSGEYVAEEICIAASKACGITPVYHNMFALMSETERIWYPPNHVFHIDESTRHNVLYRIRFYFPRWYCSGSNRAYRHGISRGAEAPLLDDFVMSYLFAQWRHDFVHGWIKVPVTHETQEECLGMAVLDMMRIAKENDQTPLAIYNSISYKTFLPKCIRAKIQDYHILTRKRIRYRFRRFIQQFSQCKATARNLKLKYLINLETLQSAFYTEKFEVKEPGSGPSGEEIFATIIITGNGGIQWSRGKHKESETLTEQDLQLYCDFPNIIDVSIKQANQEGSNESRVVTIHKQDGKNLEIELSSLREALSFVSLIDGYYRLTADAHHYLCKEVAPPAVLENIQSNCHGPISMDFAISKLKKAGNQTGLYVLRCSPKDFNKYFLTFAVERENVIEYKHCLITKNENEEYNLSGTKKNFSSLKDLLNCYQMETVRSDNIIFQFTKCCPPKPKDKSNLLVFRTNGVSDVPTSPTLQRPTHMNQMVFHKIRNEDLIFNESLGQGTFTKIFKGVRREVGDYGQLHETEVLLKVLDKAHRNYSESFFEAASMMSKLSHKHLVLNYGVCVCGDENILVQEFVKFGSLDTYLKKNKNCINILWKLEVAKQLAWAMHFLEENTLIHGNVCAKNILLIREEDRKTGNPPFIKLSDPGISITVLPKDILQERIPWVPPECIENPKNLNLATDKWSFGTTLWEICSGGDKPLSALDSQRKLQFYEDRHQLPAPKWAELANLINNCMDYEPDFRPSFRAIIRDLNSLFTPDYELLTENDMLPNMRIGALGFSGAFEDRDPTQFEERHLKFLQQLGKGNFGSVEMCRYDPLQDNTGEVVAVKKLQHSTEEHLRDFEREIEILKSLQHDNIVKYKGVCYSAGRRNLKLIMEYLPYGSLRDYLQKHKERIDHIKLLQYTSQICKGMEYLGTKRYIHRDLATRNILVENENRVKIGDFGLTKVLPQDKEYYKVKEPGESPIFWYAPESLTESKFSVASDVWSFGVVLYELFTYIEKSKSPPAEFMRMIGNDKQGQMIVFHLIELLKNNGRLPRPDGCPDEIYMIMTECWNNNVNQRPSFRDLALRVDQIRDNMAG

Experiment [2] addresses Tyrosine-protein kinase JAK1 (Homo sapiens, UniProt P23458). How it is done:
as §1

For experiment [3], the target named is Non-receptor tyrosine-protein kinase TYK2 (Homo sapiens, UniProt P29597). How it is done:
as §1

The target of experiment [4] is T1, Tyrosine-protein kinase JAK3 (Homo sapiens, UniProt P52333).
T1 sequence (P52333 whole entry): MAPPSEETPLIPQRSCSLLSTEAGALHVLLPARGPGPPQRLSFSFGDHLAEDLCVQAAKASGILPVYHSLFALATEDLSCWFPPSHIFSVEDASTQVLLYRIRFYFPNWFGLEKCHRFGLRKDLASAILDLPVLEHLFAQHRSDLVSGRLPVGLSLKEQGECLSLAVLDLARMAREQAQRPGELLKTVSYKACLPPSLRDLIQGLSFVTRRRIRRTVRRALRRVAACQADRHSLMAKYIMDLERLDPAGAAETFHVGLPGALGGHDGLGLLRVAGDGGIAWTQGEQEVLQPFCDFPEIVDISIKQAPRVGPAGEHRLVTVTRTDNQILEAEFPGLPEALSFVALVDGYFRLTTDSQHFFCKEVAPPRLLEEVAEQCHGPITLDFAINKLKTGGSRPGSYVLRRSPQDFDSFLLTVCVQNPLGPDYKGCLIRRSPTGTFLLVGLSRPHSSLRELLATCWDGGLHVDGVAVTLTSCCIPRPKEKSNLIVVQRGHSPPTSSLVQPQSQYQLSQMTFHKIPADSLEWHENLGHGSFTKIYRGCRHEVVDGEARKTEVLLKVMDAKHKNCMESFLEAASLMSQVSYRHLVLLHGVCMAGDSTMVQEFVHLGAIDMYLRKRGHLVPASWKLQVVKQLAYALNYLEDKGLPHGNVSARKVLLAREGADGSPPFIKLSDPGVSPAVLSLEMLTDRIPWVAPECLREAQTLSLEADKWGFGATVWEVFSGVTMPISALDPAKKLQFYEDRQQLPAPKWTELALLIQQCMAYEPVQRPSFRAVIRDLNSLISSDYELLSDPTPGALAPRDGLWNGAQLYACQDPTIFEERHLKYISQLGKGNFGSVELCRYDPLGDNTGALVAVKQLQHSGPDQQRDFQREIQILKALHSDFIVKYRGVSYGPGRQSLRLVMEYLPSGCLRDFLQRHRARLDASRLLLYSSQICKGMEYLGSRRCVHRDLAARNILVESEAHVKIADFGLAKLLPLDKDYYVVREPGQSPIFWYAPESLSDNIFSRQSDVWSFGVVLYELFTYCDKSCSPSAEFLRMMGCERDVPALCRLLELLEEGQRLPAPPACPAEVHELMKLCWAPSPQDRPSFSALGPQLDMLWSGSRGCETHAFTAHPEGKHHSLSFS
As for the experimental part:
as §1

SMILES strings stand for the structures.

Chain of Non-receptor tyrosine-protein kinase TYK2 (P29597 whole entry): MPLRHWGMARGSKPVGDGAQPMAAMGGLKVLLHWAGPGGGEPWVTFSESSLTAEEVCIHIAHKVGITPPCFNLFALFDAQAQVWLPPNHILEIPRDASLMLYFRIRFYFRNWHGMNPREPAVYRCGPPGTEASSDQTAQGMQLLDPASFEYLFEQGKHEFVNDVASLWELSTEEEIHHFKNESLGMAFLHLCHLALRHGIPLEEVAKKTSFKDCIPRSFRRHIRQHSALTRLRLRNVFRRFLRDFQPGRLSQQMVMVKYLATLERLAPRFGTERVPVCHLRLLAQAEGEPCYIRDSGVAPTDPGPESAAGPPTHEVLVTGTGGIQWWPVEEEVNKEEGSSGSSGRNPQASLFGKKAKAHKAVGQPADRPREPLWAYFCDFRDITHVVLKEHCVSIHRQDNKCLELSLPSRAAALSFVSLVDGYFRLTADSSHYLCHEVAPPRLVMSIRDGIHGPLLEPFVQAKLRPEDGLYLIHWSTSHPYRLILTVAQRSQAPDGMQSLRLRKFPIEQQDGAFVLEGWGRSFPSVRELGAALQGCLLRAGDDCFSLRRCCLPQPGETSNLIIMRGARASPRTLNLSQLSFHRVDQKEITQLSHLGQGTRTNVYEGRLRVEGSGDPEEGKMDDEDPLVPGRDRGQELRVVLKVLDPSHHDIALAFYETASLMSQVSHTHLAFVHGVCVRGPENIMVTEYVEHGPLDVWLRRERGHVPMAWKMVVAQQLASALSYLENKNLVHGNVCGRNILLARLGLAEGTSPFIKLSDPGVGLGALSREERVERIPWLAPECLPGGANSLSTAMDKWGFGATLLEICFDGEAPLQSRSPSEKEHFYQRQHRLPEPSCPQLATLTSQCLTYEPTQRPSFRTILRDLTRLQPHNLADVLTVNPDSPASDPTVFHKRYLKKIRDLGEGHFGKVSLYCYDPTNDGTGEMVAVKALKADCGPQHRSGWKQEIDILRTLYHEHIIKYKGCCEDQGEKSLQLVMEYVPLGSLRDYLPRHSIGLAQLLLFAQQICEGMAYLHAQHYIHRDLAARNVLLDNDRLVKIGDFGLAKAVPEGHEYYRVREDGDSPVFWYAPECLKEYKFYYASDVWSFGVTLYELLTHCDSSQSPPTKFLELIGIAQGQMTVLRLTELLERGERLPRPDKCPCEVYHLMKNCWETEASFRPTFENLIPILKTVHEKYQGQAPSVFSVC
Chain of Tyrosine-protein kinase JAK1 (P23458 whole entry): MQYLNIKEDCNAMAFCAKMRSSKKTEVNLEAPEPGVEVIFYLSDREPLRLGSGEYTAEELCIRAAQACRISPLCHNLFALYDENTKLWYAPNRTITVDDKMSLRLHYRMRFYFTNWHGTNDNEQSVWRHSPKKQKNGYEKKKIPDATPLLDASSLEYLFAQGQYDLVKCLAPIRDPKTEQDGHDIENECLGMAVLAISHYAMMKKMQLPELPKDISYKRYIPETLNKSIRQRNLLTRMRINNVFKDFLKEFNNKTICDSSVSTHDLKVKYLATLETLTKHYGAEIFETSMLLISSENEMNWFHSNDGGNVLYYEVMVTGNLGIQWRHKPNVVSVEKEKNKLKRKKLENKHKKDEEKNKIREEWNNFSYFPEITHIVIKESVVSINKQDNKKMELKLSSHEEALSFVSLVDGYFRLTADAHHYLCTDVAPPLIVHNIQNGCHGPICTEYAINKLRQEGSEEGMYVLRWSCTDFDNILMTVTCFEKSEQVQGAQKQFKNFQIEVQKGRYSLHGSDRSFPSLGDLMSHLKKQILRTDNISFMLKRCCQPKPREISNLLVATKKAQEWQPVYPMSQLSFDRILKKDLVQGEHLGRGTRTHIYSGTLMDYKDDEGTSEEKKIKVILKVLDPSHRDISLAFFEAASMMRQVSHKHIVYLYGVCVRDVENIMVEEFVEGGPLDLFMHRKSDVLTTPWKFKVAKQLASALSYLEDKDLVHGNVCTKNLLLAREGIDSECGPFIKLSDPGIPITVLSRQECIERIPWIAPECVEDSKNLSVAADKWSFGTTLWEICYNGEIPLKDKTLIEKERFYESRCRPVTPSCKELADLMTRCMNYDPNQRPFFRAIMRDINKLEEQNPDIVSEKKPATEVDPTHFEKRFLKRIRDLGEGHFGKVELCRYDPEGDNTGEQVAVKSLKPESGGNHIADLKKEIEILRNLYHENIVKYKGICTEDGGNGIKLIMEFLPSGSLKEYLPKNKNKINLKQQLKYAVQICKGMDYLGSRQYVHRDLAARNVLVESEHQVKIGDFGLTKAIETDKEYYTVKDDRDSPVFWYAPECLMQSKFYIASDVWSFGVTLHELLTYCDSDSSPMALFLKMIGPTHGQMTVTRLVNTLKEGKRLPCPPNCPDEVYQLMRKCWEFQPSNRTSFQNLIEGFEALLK

`CNC(=O)c1n[nH]c2nc(-c3cc(F)c(O)cc3CC(F)(F)F)nc(NCc3ccccc3N(CCO)S(C)(=O)=O)c12` [US10022376, Example 100]: the figures for the half-inhibitory concentration (IC50) in experiment [1], in experiment [2] and in experiment [3] were 32.3 nM, 8.7 nM and 1150 nM, respectively.
The matching figures for `CNC(=O)c1n[nH]c2nc(-c3cc(F)c(O)cc3CC(F)(F)F)nc(NCc3nccnc3N(C)S(C)(=O)=O)c12` [US10022376, Example 106]: 283 nM, 41.2 nM and 6110 nM.
Turning to `CN(c1ccc(O)cc1CNc1nc(-c2cc(F)c(O)cc2CC(F)(F)F)cc2[nH]nc(C(=O)Nc3ccc(NCCO)nc3)c12)S(C)(=O)=O` [US10022376, Example 164], the IC50 in experiment [1] amounted to 22.2 nM; in experiment [2], 4.5 nM; in experiment [3], 24.2 nM; in experiment [4], 91 nM.
As for `CN(c1ccc(O)cc1CNc1nc(-c2cc(F)c(O)cc2CC(F)(F)F)nc2[nH]nc(C(N)=O)c12)S(=O)(=O)c1ccccc1` [US10022376, Example 96], the IC50 in experiment [3] was determined as 1730 nM; in experiment [4], 248 nM.
`CN(c1ccccc1CNc1nc(-c2cc(F)c(O)cc2CC(F)(F)F)cc2[nH]nc(C(N)=O)c12)S(C)(=O)=O` [US10022376, Example 98] came in with a 50% inhibitory concentration (IC50) in experiment [4] of 39.6 nM.
In the case of `CC(=O)N1CCc2[nH]c(-c3n[nH]c4nc(-c5cc(F)c(O)cc5CC(F)(F)F)nc(NCc5cc(O)ccc5N(C)S(C)(=O)=O)c34)nc2C1` [US10022376, Example 105], the values for the IC50 in experiment [1], in experiment [3] and in experiment [4] were 14.4 nM, 14 nM and 51.2 nM, respectively.
As to `CCN(c1ccc(O)cc1CNc1nc(-c2cc(F)c(O)cc2CC(F)(F)F)nc2[nH]nc(C(=O)NC)c12)S(=O)(=O)c1ccccc1` [US10022376, Example 75], the IC50 came out at 321 nM in experiment [1], 61.1 nM in experiment [2], 1940 nM in experiment [3] and 755 nM in experiment [4].
Regarding `CCN(c1ccc(O)cc1CNc1nc(-c2cc(F)c(O)cc2CC(F)(F)F)nc2[nH]nc(C(N)=O)c12)S(=O)(=O)c1ccccc1` [US10022376, Example 97], the figures for the IC50 in experiment [2] and in experiment [3] were 55.1 nM and 2190 nM, respectively.
On to `CN(C)CCNC(=O)N1CCc2[nH]c(-c3n[nH]c4nc(-c5cc(F)c(O)cc5CC(F)(F)F)nc(NCc5cc(O)ccc5N(C)S(C)(=O)=O)c34)nc2C1` [US10022376, Example 110], for which the IC50 is 26.9 nM in experiment [1], 5.4 nM in experiment [2] and 35 nM in experiment [3].
Turning to `CN(c1cc(O)ccc1CNc1nc(-c2cc(F)c(O)cc2CC(F)(F)F)cc2[nH]nc(C(N)=O)c12)S(C)(=O)=O` [US10022376, Example 99], the IC50 turned out to be 6.8 nM in experiment [2] and 426 nM in experiment [3].
Turning to `CN(c1ccc(O)cc1CNc1nc(-c2cc(F)c(O)cc2CC(F)(F)F)nc2[nH]nc(C(=O)Nc3ccc(NCCO)nc3)c12)S(C)(=O)=O` [US10022376, Example 169], the figures for the IC50 in experiment [2], in experiment [3] and in experiment [4] were 10.5 nM, 306 nM and 59.8 nM, respectively.

Source of the values: BindingDB's records for patent US10022376 (Pfizer, 2018).
